According to patent US20170304388A1, “NEW INDICATION OF CARDIOVASCULAR DRUGS FOR PREPARATION OF CANCER INHIBITION PHARMACEUTICAL COMPOSITION” (LAUNX BIOMEDICAL CO., LTD., priority 2014, published 2017):
Like-named read-outs stand apart in the source and are kept apart here.

Experiments:
Format in all cases: cell-based
[1] = system: AGS (Gastric Adenocarcinoma); assay: Cell viability analysis (WST-1), AGS; details: 72 h
C-33A = assay: Cell viability analysis (WST-1), C-33A; details: Homo sapiens, C-33-A, 72 h, Table 4, repeated experiments, drug 10 μM, read-out: survival rate (viability) of cancer cells, C-33A
Method in brief: (§1)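 Drug tested at 10 μM on 3000 cells per well over 72 h. Read-out: WST-1 (9:1 medium:stock), 37° C, 30–90 min, OD450 nm, expressed as survival rate.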

MDA-MB231 = assay: Cell viability analysis (WST-1), MDA-MB231; details: Homo sapiens, MDA-MB-231, 72 h, Table 4, repeated experiments, drug 10 μM, read-out: survival rate (viability) of cancer cells, MDA-MB231
[2] = system: H1650 (Lung Adenocarcinoma); assay: Cell viability analysis (WST-1), H1650; details: Homo sapiens, NCI-H1650, 72 h
[3] = system: HepG2 (Hepatocellular Carcinoma); assay: Cell viability analysis (WST-1), HepG2; details: Homo sapiens, HepG2, 72 h
U2OS = assay: Cell viability analysis (WST-1), U2OS; details: Homo sapiens, U2OS, 72 h, Table 4, repeated experiments, drug 10 μM, read-out: survival rate (viability) of cancer cells, U2OS
Method in brief: as §1

Hep3B = assay: Cell viability analysis (WST-1), Hep3B; details: Homo sapiens, Hep3B, 72 h, Table 4, repeated experiments, drug 10 μM, read-out: survival rate (viability) of cancer cells, Hep3B
Method in brief: as §1

[4] = system: MKN-45 (Gastric Adenocarcinoma); assay: Cell viability analysis (WST-1), MKN-45; details: Homo sapiens, MKN-45, 72 h
BCC = assay: Cell viability analysis (WST-1), BCC; details: BCC, 72 h, Table 4, repeated experiments, drug 10 μM, read-out: survival rate (viability) of cancer cells, BCC
T24 = assay: Cell viability analysis (WST-1), T24; details: Homo sapiens, T-24, 72 h, Table 4, repeated experiments, drug 10 μM, read-out: survival rate (viability) of cancer cells, T24
Method in brief: as §1

[5] = system: HCT116 (Colorectal Carcinoma); assay: Cell viability analysis (WST-1), HCT116; details: Homo sapiens, HCT-116, 72 h
[6] = system: TSGH-8301 (Urinary Bladder Carcinoma); assay: Cell viability analysis (WST-1), TSGH-8301; details: 72 h, Table 4, repeated experiments, drug 10 μM, WST-1, read-out: survival rate (viability) of cancer cells, TSGH-8301
SAS = assay: Cell viability analysis (WST-1), SAS; details: 72 h, Table 4, repeated experiments, drug 10 μM, read-out: survival rate (viability) of cancer cells, SAS
Method in brief: as §1

TOV-21G = assay: Cell viability analysis (WST-1), TOV-21G; details: Homo sapiens, TOV21G, 72 h, Table 4, repeated experiments, drug 10 μM, read-out: survival rate (viability) of cancer cells, TOV-21G
Method in brief: as §1

[7] = system: A375 (Amelanotic Melanoma); assay: Cell viability analysis (WST-1), A375; details: Homo sapiens, A-375, 72 h
AsPC-1 = assay: Cell viability analysis (WST-1), AsPC-1; details: Homo sapiens, ASPC1, 72 h, Table 4, repeated experiments, drug 10 μM, read-out: survival rate (viability) of cancer cells, AsPC-1
Method in brief: as §1

786-O = assay: Cell viability analysis (WST-1), 786-O; details: Homo sapiens, 786-0, 72 h, Table 4, repeated experiments, drug 10 μM, read-out: survival rate (viability) of cancer cells, 786-O
Method in brief: as §1

[8] = system: PC3 (Prostate Adenocarcinoma); assay: Cell viability analysis (WST-1), PC3; details: 72 h
[9] = system: HeLa (Cervix Adenocarcinoma); assay: Cell viability analysis (WST-1), HeLa; details: Homo sapiens, HeLa, 72 h

CCC(C)(C)C(=O)O[C@H]1C[C@@H](C)C=C2C=C[C@H](C)[C@H](CC[C@@H]3C[C@@H](O)CC(=O)O3)[C@H]21 [Simvastatin (Zocor), Simvastatin]
viability at 10 µM ([1]; Table 3, drug 10 μM, WST-1, OD450 nm, read-out: survival rate (viability) of cancer cells, AGS): 85.6% | viability at 10 µM ([1]; Table 4, repeated experiments, drug 10 μM, WST-1, read-out: survival rate (viability) of cancer cells, AGS): 81% | viability at 10 µM (C-33A): 112% | viability at 10 µM (MDA-MB231): 71.1% | viability at 10 µM ([2]; Table 3, drug 10 μM, WST-1, OD450 nm, read-out: survival rate (viability) of cancer cells, H1650): 115% | viability at 10 µM ([2]; Table 4, repeated experiments, drug 10 μM, WST-1, read-out: survival rate (viability) of cancer cells, H1650): 79.8% | viability at 10 µM ([3]; Table 3, drug 10 μM, WST-1, OD450 nm, read-out: survival rate (viability) of cancer cells, HepG2): 113% | viability at 10 µM ([3]; Table 4, repeated experiments, drug 10 μM, WST-1, read-out: survival rate (viability) of cancer cells, HepG2): 124% | viability at 10 µM (U2OS): 65.6% | viability at 10 µM (Hep3B): 114% | viability at 10 µM ([4]; Table 3, drug 10 μM, WST-1, OD450 nm, read-out: survival rate (viability) of cancer cells, MKN-45): 79.4% | viability at 10 µM ([4]; Table 4, repeated experiments, drug 10 μM, WST-1, read-out: survival rate (viability) of cancer cells, MKN-45): 92.6% | viability at 10 µM (BCC): 57.4% | viability at 10 µM (T24): 89.6% | viability at 10 µM ([5]; Table 3, drug 10 μM, WST-1, OD450 nm, read-out: survival rate (viability) of cancer cells, HCT116 (WT)): 124% | viability at 10 µM ([5]; Table 4, repeated experiments, drug 10 μM, WST-1, read-out: survival rate (viability) of cancer cells, HCT116): 83.2% | viability at 10 µM [6]: 106% | viability at 10 µM (SAS): 83.9% | viability at 10 µM (TOV-21G): 63.6% | viability at 10 µM ([7]; Table 3, drug 10 μM, WST-1, OD450 nm, lower viability = better inhibition, read-out: survival rate (viability) of cancer cells, A375): 114% | viability at 10 µM ([7]; Table 4, repeated experiments, drug 10 μM, WST-1, read-out: survival rate (viability) of cancer cells, A375): 78.6% | viability at 10 µM (AsPC-1): 78.2% | viability at 10 µM (786-O): 87.8% | viability at 10 µM ([8]; Table 3, drug 10 μM, WST-1, OD450 nm, read-out: survival rate (viability) of cancer cells, PC3): 91.8% | viability at 10 µM ([8]; Table 4, repeated experiments, drug 10 μM, WST-1, read-out: survival rate (viability) of cancer cells, PC-3): 92.8% | viability at 10 µM ([9]; Table 3, drug 10 μM, WST-1, OD450 nm, read-out: survival rate (viability) of cancer cells, HeLa): 104% | viability at 10 µM ([9]; Table 4, repeated experiments, drug 10 μM, WST-1, read-out: survival rate (viability) of cancer cells, HeLa): 100%
